Source: patent publication US8084046B2 (priority 2001, dated 2011)
Several values for one entry are separate records, joined by “and”; a condition that tells them apart may be missing. Identical values can stand only once. Like-named read-outs stand apart in the source and are kept apart here.

How the values were obtained:
Format in all cases: cell-based
S. aureus MN8 [1] = tested on: S. aureus MN8; set-up: ngTSST-1 per CFU: scale not given here; settings: for % Reduction / ngTSST-1 per CFU: terpineol 0%
S. aureus MN8 [2] = tested on: S. aureus MN8
S. aureus (MN8) [3] = settings: 24 h
S. aureus (MN8) [4] = tested on: S. aureus (MN8)

## myreth-3-myristate [Cetiol]
S. aureus MN8 [1]
  ng TSST-1 per mL: 1147 and 989 and 1556
S. aureus MN8 [1]; Cetiol 2.5 mM
  % Reduction: 0%
  ngTSST-1 per CFU: 371 ng per CFU
S. aureus MN8 [1]; Cetiol 5.0 mM
  % Reduction: 39%
  ngTSST-1 per CFU: 196 ng per CFU
S. aureus MN8 [1]; Cetiol 10.0 mM
  % Reduction: 37%
  ngTSST-1 per CFU: 200 ng per CFU
S. aureus MN8 [2]
  % CFU/mL × 10^6: 5.9 and 5.0 and 4.2

## CC1(O)CCC(C(C)(C)O)CC1 (stereo not shown) [p-menthane-1,8-diol]
S. aureus (MN8) [3]
  ng TSST-1 per OD Unit: 792

## CC(C)=CCC/C(C)=C/CO [Geraniol]
S. aureus (MN8) [3]
  ng TSST-1 per OD Unit: 26

## C=CC(C)(O)CCC=C(C)C (stereo not shown) [Linalool]
S. aureus (MN8) [3]
  ng TSST-1 per OD Unit: 421

## CC1CCC(C(C)C)C(O)C1 (stereo not shown) [Menthol]
S. aureus (MN8) [4]
  effect on the growth of S. aureus cells: minimal, if any, effect on the growth of S. aureus cells
S. aureus (MN8) [3]
  ng TSST-1 per OD Unit: 33
